{"source": "paper PMC4234442", "about": "(Journal of Medicinal Chemistry, 2014)", "key": {"NPFF2-R [1]": {"target": "T1, NPFF2-R (Homo sapiens, UniProt Q9Y5X5)", "T1 sequence (Q9Y5X5 whole entry)": "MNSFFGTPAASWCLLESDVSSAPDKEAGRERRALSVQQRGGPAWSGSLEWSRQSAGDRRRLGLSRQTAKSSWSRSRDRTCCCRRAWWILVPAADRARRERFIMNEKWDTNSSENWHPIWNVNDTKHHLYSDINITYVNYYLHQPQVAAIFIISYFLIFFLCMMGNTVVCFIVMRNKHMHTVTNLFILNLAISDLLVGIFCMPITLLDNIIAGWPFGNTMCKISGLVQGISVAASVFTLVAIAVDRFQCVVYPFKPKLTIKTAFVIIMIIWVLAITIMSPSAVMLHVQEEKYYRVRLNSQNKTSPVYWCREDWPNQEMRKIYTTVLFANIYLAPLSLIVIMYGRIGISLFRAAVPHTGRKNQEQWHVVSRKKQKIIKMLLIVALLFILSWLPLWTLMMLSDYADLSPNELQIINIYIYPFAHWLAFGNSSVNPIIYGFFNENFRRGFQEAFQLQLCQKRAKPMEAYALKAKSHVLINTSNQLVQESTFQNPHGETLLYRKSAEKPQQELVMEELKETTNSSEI", "type": "binding"}, "NPFF1-R [2]": {"target": "T2, NPFF1-R (Homo sapiens, UniProt Q9GZQ6)", "T2 sequence (Q9GZQ6 whole entry)": "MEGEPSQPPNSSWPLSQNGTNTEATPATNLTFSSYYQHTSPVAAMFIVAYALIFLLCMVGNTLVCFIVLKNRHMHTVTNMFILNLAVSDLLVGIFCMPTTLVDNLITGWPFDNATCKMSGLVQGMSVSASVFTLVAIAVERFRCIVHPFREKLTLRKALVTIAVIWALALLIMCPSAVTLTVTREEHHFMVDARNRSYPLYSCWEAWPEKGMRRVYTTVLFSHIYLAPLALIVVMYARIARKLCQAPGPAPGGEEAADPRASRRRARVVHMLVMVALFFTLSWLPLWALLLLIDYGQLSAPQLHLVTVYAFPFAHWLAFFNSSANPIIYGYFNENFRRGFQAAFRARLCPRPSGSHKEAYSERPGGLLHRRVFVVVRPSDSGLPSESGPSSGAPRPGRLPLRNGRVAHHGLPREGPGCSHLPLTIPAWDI", "type": "binding"}, "NPFF1-R [3]": {"target": "T2, NPFF1-R", "type": "cell-based"}, "NPFF2-R [4]": {"target": "T1, NPFF2-R", "conditions": "cited from earlier work; for selectivity for the hNPFF2 subtype: radioligand competition binding assays"}, "NPFF2-R [5]": {"target": "T1, NPFF2-R", "assay": "[35S]GTPγS binding assay, membranes of NPFF2-R expressing CHO cells", "type": "biochemical", "conditions": "tested at 10 μM; % maximal activation"}, "NPFF1-R [6]": {"target": "T2, NPFF1-R", "assay": "[35S]GTPγS binding assay, membranes of NPFF1-R expressing CHO cells", "type": "biochemical", "conditions": "tested at 10 μM; % maximal activation"}, "NPFF2-R [7]": {"target": "T1, NPFF2-R", "type": "cell-based"}, "[8]": {"target": "membrane of rat spinal cord", "conditions": "read-out: Ki in the membrane of rat spinal cord; cited from earlier work"}, "NPFF1-R [9]": {"target": "T2, NPFF1-R", "conditions": "read-out: hNPFF1-R Ki; radioligand displacement assays; cited from earlier work"}, "NPFF1-R [10]": {"target": "T2, NPFF1-R", "conditions": "read-out: cAMP hNPFF1-R antagonist activity EC50; data taken from ref 15; cited from earlier work"}, "NPFF2-R [11]": {"target": "T1, NPFF2-R", "type": "binding", "remark": "listed apart in the source"}}, "note": "Where a name gives a salt, the structure may show the parent alone. Marks after values point to notes of the source that are not given here. Ends that are not written are not given here."}
{"compound": "N=C(N)NCC(=O)NCC1(Cc2ccc3ccccc3c2)CCN(Cc2ccccc2)CC1", "note": "[53c, N-((1-Benzyl-4-(naphthalen-2-ylmethyl)piperidin-4-yl)methyl)-2-guanidinoacetamide Ditriflate]", "values": [{"measurement": "fold loss of affinity at NPFF2-R relative to 53a", "setting": "NPFF2-R [1]", "value": 6.8, "unit": "fold"}, {"measurement": "ratio, preference for NPFF2", "setting": "NPFF2-R [1]", "value": "1.5-fold (NPFF2)"}]}
{"compound": "N=C(N)NCC(=O)NCC1(c2ccccc2)CCN(Cc2ccccc2)CC1", "note": "[compound 34, N-((1-Benzyl-4-phenylpiperidin-4-yl)methyl)-2-guanidinoacetamide Ditriflate]", "values": [{"measurement": "fold loss of affinity at NPFF1-R relative to lead 21", "setting": "NPFF1-R [2]", "value": 1.6, "unit": "fold"}, {"measurement": "ratio, preference for NPFF1", "setting": "NPFF1-R [2]", "value": "6.9-fold (NPFF1)"}, {"measurement": "fold loss of affinity at NPFF2-R relative to lead 21", "setting": "NPFF2-R [1]", "value": 8.7, "unit": "fold"}]}
{"compound": "N=C(N)NCC(=O)NCC1(Cc2ccc(-c3ccccc3)cc2)CCN(Cc2ccccc2)CC1", "note": "[53d, N-((1-Benzyl-4-(biphenyl-4-ylmethyl)piperidin-4-yl)methyl)-2-guanidinoacetamide Ditriflate]", "values": [{"measurement": "ratio, preference for NPFF1", "setting": "NPFF1-R [2]", "value": "3-fold (NPFF1)"}, {"measurement": "fold loss of affinity at NPFF2-R relative to 53a", "setting": "NPFF2-R [1]", "value": 30, "unit": "fold"}]}
{"compound": "N=C(N)NCC(=O)NCC1(Nc2ccccc2)CCN(CCc2ccccc2)CC1", "note": "[49c, 2-Guanidino-N-((1-phenethyl-4-(phenylamino)piperidin-4-yl)methyl)acetamide Tritriflate]", "values": [{"measurement": "fold gain of affinity at NPFF2-R compared with lead 21", "setting": "NPFF2-R [1]", "value": "1.2–3.1 fold"}]}
{"compound": "N=C(N)NCC(=O)NCC1(Cc2ccc(Cl)c(Cl)c2)CCN(Cc2ccccc2)CC1", "note": "[53b, N-((1-Benzyl-4-(3,4-dichlorobenzyl)piperidin-4-yl)methyl)-2-guanidinoacetamide Ditriflate]", "values": [{"measurement": "fold loss of affinity at NPFF2-R relative to 53a", "setting": "NPFF2-R [1]", "value": 2.7, "unit": "fold"}]}
{"compound": "N=C(N)NCCNC(=O)C1(Nc2ccccc2)CCN(Cc2ccccc2)CC1", "note": "[compound 46, 1-Benzyl-N-(2-guanidinoethyl)-4-(phenylamino)piperidine-4-carboxamide Tritriflate]", "values": [{"measurement": "fold gain of affinity at NPFF1-R compared with lead 21", "setting": "NPFF1-R [2]", "value": 4, "unit": "fold"}]}
{"compound": "N=C(N)NCC(=O)NCC1(Nc2cccc3ccccc23)CCN(Cc2ccccc2)CC1", "note": "[30a, N-((1-Benzyl-4-(naphthalen-1-ylamino)piperidin-4-yl)methyl)-2-guanidinoacetamide Tritriflate]", "values": [{"measurement": "Highest concentration showing no agonist activity when tested alone, hNPFF1-R", "setting": "NPFF1-R [3]", "value": ">10", "unit": "K ^f"}, {"measurement": "ratio, preference for NPFF1", "setting": "NPFF1-R [2]", "value": "3.3-fold (NPFF1)"}]}
{"compound": "N=C(N)NCC(=O)NCC1(Nc2ccccc2)CCN(Cc2cccc3ccccc23)CC1", "note": "[49d, 2-Guanidino-N-((1-(naphthalen-1-ylmethyl)-4-(phenylamino)piperidin-4-yl)methyl)acetamide Tritriflate]", "values": [{"measurement": "fold gain of affinity at NPFF2-R compared with lead 21", "setting": "NPFF2-R [1]", "value": "1.2–3.1 fold"}]}
{"compound": "AGEGLSSPFWSLAAPQRFa [hNPAF]", "values": [{"measurement": "selectivity for the hNPFF2 subtype", "setting": "NPFF2-R [4]", "value": 10.1, "unit": "fold"}]}
{"compound": "N=C(N)NCCC[C@H](N)C(=O)NCC1(Nc2ccccc2)CCN(Cc2ccccc2)CC1", "note": "[7b, 2-Amino-N-((1-benzyl-4-(phenylamino)piperidin-4-yl)methyl)-5-guanidinopentanamide Hydrochloride]", "values": [{"measurement": "% stimulation (increase) of [35S]GTPγS binding at NPFF2-R", "setting": "NPFF2-R [5]", "value": "184 ^d %"}, {"measurement": "% stimulation (increase) of [35S]GTPγS binding at NPFF1-R", "setting": "NPFF1-R [6]", "value": "36 ^d %"}]}
{"compound": "COc1cccc(NC2(CNC(=O)CNC(=N)N)CCN(Cc3ccccc3)CC2)c1", "note": "[30c, N-((1-Benzyl-4-(3-methoxyphenylamino)piperidin-4-yl)methyl)-2-guanidinoacetamide Tritriflate]", "values": [{"measurement": "ratio, preference for NPFF1", "setting": "NPFF1-R [2]", "value": "4.4-fold (NPFF1)"}]}
{"compound": "SLNFEELKDWGPKNVIKMSTPAVNKMPHSFANLPLRFa [hNPSF]", "values": [{"measurement": "selectivity for the hNPFF2 subtype", "setting": "NPFF2-R [4]", "value": 1.2, "unit": "fold"}]}
{"compound": "N=C(N)NCC(=O)NCC1(Nc2ccccc2)CCN(Cc2ccc(Br)cc2)CC1", "note": "[49f, N-((1-(4-Bromobenzyl)-4-(phenylamino)piperidin-4-yl)methyl)-2-guanidinoacetamide Tritriflate]", "values": [{"measurement": "fold gain of affinity at NPFF1-R compared with lead 21", "setting": "NPFF1-R [2]", "value": "2.3–2.8 fold"}]}
{"compound": "N=C(N)NCC(=O)NCC1(Nc2ccccc2)CCN(CC2CCCCC2)CC1", "note": "[49b, N-((1-(Cyclohexylmethyl)-4-(phenylamino)piperidin-4-yl)methyl)-2-guanidinoacetamide Tritriflate]", "values": [{"measurement": "fold loss of affinity at NPFF1-R relative to lead 21", "setting": "NPFF1-R [2]", "value": 5, "unit": "fold"}, {"measurement": "fold gain of affinity at NPFF2-R compared with lead 21", "setting": "NPFF2-R [1]", "value": "1.2–3.1 fold"}]}
{"compound": "COc1cc(NC2(CNC(=O)CNC(=N)N)CCN(Cc3ccccc3)CC2)cc(OC)c1", "note": "[30b, N-((1-Benzyl-4-(3,5-dimethoxyphenylamino)piperidin-4-yl)methyl)-2-guanidinoacetamide Tritriflate]", "values": [{"measurement": "Highest concentration showing no agonist activity when tested alone, hNPFF1-R", "setting": "NPFF1-R [3]", "value": ">10", "unit": "K ^f"}, {"measurement": "ratio, preference for NPFF1", "setting": "NPFF1-R [2]", "value": "8.7-fold (NPFF1)"}]}
{"compound": "N=C(N)NCC(=O)NCC1(Cc2cccc3ccccc23)CCN(Cc2ccccc2)CC1", "note": "[53a, N-((1-Benzyl-4-(naphthalen-1-ylmethyl)piperidin-4-yl)methyl)-2-guanidinoacetamide Tritriflate]", "values": [{"measurement": "Activity alone at NPFF1-R", "setting": "NPFF1-R [3]", "value": "low activity"}, {"measurement": "Activity alone at NPFF2-R", "setting": "NPFF2-R [7]", "value": "low activity"}, {"measurement": "fold gain of affinity at NPFF2-R compared with lead 21", "setting": "NPFF2-R [1]", "value": 14, "unit": "fold"}, {"measurement": "fold increase in affinity at NPFF2-R relative to lead 42", "setting": "NPFF2-R [1]", "value": 2.8, "unit": "fold"}]}
{"compound": "N=C(N)NCC(=O)NCC1(Nc2ccccc2)CCN(Cc2ccc3ccccc3c2)CC1", "note": "[49e, 2-Guanidino-N-((1-(naphthalen-2-ylmethyl)-4-(phenylamino)piperidin-4-yl)methyl)acetamide Tritriflate]", "values": [{"measurement": "fold gain of affinity at NPFF1-R compared with lead 21", "setting": "NPFF1-R [2]", "value": "2.3–2.8 fold"}]}
{"compound": "N=C(N)NCC(=O)NCC1(Cc2ccccc2)CCN(Cc2ccccc2)CC1", "note": "[compound 42, N-((1,4-Dibenzylpiperidin-4-yl)methyl)-2-guanidinoacetamide Ditriflate]", "values": [{"measurement": "Highest concentration showing no agonist activity when tested alone, hNPFF2-R", "setting": "NPFF2-R [7]", "value": 1, "unit": "K ^f"}, {"measurement": "fold gain of affinity at NPFF2-R compared with lead 21", "setting": "NPFF2-R [1]", "value": 5, "unit": "fold"}]}
{"compound": "FLFQPQRFa [NPFF]", "values": [{"measurement": "Ki", "setting": "[8]", "value": 0.21, "unit": "nM"}]}
{"compound": "N=C(N)NCC(=O)NCC1(Nc2ccccc2)CCN(Cc2ccccc2)CC1", "note": "[compound 21, N-((1-Benzyl-4-(phenylamino)piperidin-4-yl)methyl)-2-guanidinoacetamide tritriflate]", "values": [{"measurement": "Agonist activity alone at NPFF1-R", "setting": "NPFF1-R [3]", "value": "weak partial agonist activity"}, {"measurement": "fold increase in affinity at NPFF1-R compared with lead 7b", "setting": "NPFF1-R [2]", "value": 1.5, "unit": "fold"}, {"measurement": "% inhibition of forskolin-stimulated cAMP accumulation (cyclase) at NPFF2-R", "setting": "NPFF2-R [7]", "value": "20–25 ^e %"}, {"measurement": "Agonist activity alone at NPFF2-R", "setting": "NPFF2-R [7]", "value": "weak partial agonist activity"}, {"measurement": "fold increase in affinity at NPFF2-R compared with lead 7b", "setting": "NPFF2-R [1]", "value": 2.6, "unit": "fold"}]}
{"compound": "n-adamantanecarbonyl-Arg-Phe-NH2 [RF9]", "values": [{"measurement": "Ki", "setting": "NPFF2-R [4]; read-out: hNPFF2-R Ki, radioligand displacement assays", "value": "75 ± 9", "unit": "nM"}, {"measurement": "Ki", "setting": "NPFF1-R [9]", "value": "58 ± 5", "unit": "nM"}, {"measurement": "cAMP hNPFF1-R Emax, %", "setting": "NPFF1-R [3]", "value": "79 ± 5 ^c %"}, {"measurement": "EC50", "setting": "NPFF1-R [10]", "value": "4700 ± 1200", "unit": "nM"}]}
{"compound": "SQAFLFQPQRFa (SQAFLFQPQRF-NH2; UniProt O15130 66-76, looked up) [hNPFF]", "values": [{"measurement": "selectivity for the hNPFF2 subtype", "setting": "NPFF2-R [4]", "value": 10.7, "unit": "fold"}]}
{"compound": "N=C(N)NCCC[C@H](N)C(=O)NCC1CCN(Cc2ccccc2)CC1", "note": "[compound 15, 2-Amino-N-((1-benzylpiperidin-4-yl)methyl)-5-guanidinopentanamide Hydrochloride]", "values": [{"measurement": "fold loss of affinity at NPFF2-R relative to 7b", "setting": "NPFF2-R [11]", "value": 7, "unit": "fold"}]}
{"compound": "N=C(N)NCC(=O)NCC1(CCc2ccccc2)CCN(Cc2ccccc2)CC1", "note": "[compound 43, N-((1-Benzyl-4-phenethylpiperidin-4-yl)methyl)-2-guanidinoacetamide Ditriflate]", "values": [{"measurement": "ratio, preference for NPFF1", "setting": "NPFF1-R [2]", "value": "3-fold (NPFF1)"}, {"measurement": "fold loss of affinity at NPFF2-R relative to 42", "setting": "NPFF2-R [1]", "value": 5.5, "unit": "fold"}]}
{"compound": "N=C(N)NCC(=O)NCC1(Nc2ccc(Cl)c(Cl)c2)CCN(Cc2ccccc2)CC1", "note": "[30d, N-((1-Benzyl-4-(3,4-dichlorophenylamino)piperidin-4-yl)methyl)-2-guanidinoacetamide Tritriflate]", "values": [{"measurement": "ratio, preference for NPFF1", "setting": "NPFF1-R [2]", "value": "2.1-fold (NPFF1)"}]}
